Test results taken from article PMC8005474 (Journal of neuro-oncology, 2021).

Biological target: YAP1 (Yes-associated protein, YAP) (Homo sapiens, UniProt P46937)
Test: SPR with immobilized full-length YAP
Type: binding

Sequence of YAP1 (Yes-associated protein, YAP) (P46937 whole entry): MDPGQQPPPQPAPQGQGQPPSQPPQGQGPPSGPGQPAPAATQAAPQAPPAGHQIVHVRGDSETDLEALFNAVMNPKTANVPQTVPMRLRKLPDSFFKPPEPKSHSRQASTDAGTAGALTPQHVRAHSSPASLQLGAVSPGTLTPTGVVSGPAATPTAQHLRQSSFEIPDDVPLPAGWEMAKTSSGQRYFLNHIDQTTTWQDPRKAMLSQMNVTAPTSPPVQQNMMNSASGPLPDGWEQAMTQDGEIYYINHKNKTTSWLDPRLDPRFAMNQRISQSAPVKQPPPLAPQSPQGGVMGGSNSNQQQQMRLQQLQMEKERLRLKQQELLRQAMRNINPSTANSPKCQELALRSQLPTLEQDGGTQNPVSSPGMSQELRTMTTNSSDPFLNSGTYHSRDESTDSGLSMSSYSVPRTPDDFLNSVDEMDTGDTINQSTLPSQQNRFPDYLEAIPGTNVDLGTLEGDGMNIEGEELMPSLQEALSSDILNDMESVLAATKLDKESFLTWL

For `COc1ccc(-c2cc(-c3ccccc3)nc3c2CC(=O)Nc2ccccc2-3)cc1OC` [NSC682769], the Kd was 738 nM.
